From US12589161B2, “PEGylated synthetic KL4 peptide, compositions and methods thereof” (THE UNIVERSITY OF HONG KONG, priority 2019, dated 2026)
Non-standard residues stand in square brackets, D forms with d. Residues, ends and D or L forms follow the SMILES beside them. PEG24 = NCCOCCOCCOCCOCCOCCOCCOCCOCCOCCOCCOCCOCCOCCOCCOCCOCCOCCOCCOCCOCCOCCOCCOCCOCCC(=O)O

Key:
[1] = Charge ratio of peptide to siRNA at 10:1 weight ratio
Source text: This is partly because the uncharged PEG chains reduced the effective charge ratio between cationic KL4 and siRNA [77]. The charge ratios of KL4, PEG6KL4, PEG12KL4 and PEG24KL4 to siRNA at 10:1 weight ratio are 6.1 to 1, 5.5 to 1, 4.9 to 1 and 4.2 to 1, respectively. […] The molecular weight of the PEG used in this study, which is below 1,200 Da, is relatively low compared with others where PEG of 2,000 to 5,000 Da was often used. Therefore, PEGylated KL4 peptide/siRNA complexes remained to be positively charged, which is suitable for cellular entry. […] In addition, PEG also provides steric hindrance between the interaction of KL4 and siRNA that weakens the binding, promoting the release of siRNA from the complexes after the addition of heparin.

siRNA = assay: Fluorescence displacement assay of siRNA binding and heparin release; settings: 10:1 ratio, heparin titration
Experimental: The siRNA binding affinity of the peptides was investigated by fluorescence displacement assay using negative control siRNA. The siRNA was added into 1× SYBR® Gold Tris-acetate-EDTA (TAE) buffer and incubated for 30 min at room temperature. The fluorescence intensity was quantified by fluorescence spectrophotometer (SpectraMax® M4, Molecular devices, LLC., CA, USA) at 495 nm excitation and 537 nm emission wavelengths. The peptides at concentration of 1 mg/mL were titrated to the siRNA/dye mixtures. The fluorescence intensity of siRNA/dye mixture in the presence of peptides was expressed as a percentage of that of the siRNA/dye mixture without peptides. The background fluorescence was subtracted from all measurements before analysis. Percentage change of fluorescence intensity was plotted against the weight ratio of peptides to siRNA upon titration. To further investigate the binding profile of the peptide/siRNA complexes, heparin was added to dissociate the complexes and release the siRNA. […] The heparin diluted in TAE buffer at concentration of 10 or 100 i.u./μL was titrated into the peptide/siRNA/dye mixture and the fluorescence intensity was measured as described above. Percentage change of fluorescence intensity was plotted against the amount of heparin upon titration. The data was fit to a four-parameter logistic sigmoidal curve and the EC50 and Hill slope were calculated.

BEAS-2B cells = assay: GAPDH siRNA transfection on BEAS-2B cells (Western blot); assay type: cell-based, human; settings: one-way ANOVA, Tukey, n.s. not significant, * p<0.05, ** p<0.01, *** p<0.001
Experimental: (§1) A549 cells, BEAS-2B and Calu-3 cells were seeded in six-well plates at a density of 1.6×10^5 cells per well, 2×10^5 cells per well and 3×10^5 cells per well, respectively, one to two days before transfection. The cells were transfected with peptide/siRNA complexes at 5:1 to 20:1 ratio (w/w) containing GAPDH siRNA or negative control siRNA (6 to 100 nM) in OptiMEM I reduced serum medium. Lipofectamine 2000 was used for comparison. After 5 h of incubation, the cells were washed and replaced with serum supplemented cell culture medium. At 72 h post-transfection, the cells were washed and lysed with cell lysis buffer. Western blotting assay was performed to analyze the level of GAPDH protein as previously described. The GAPDH expression was analyzed by densitometry of Western blots using ImageJ software (Version 1.52). The GAPDH expression was normalized with the expression of […]-actin of the corresponding sample. The remaining GAPDH expression was the normalized GAPDH expression of positive control divided by the normalized GAPDH expression of negative control.

Calu-3 cells = assay: GAPDH siRNA transfection on Calu-3 cells (Western blot); assay type: cell-based, human; settings: one-way ANOVA, Tukey, n.s. not significant, * p<0.05, ** p<0.01, *** p<0.001
Experimental: as §1

[2] = Circular dichroism, temperature ramping; assay type: physicochemical; settings: 6 to 94 °C, 5 mM Tris-HCl buffer, 0.1 mg/mL
Experimental: KL4 and PEG6KL4 peptides were dissolved in 5 mM Tris-HCl buffer at a final concentration of 0.1 mg/mL in 0.1% (v/v) DMSO. PEG12KL4 and PEG24KL4 were dissolved in 5 mM Tris-HCl buffer at a final concentration of 0.1 mg/mL without DMSO. CD spectra were acquired on a Chirascan™ Spectrometer (Applied Photophysics, Leatherhead, UK). For temperature ramping experiment, far-UV CD spectra were obtained with the peptide solution incubated from 6° C. to 94° C. Spectra were recorded from 260 to 190 nm using a 0.5 mm path length and were processed using Chirascan software where a spectrum of the peptide free solution was subtracted and Savitzky-Gorlay smoothing applied.

A549 cells = assay: GAPDH siRNA transfection on A549 cells (Western blot); assay type: cell-based, human; settings: A549, 10:1 ratio, 6 to 100 nM siRNA, 72 h
Experimental: A549 cells were seeded in 6-well plates at a density of 1.5×10^5 cells per well one day before transfection. The cells were transfected with peptide/siRNA complexes containing 50 pmol of GAPDH siRNA or negative control siRNA per well (50 nM). The complexes were prepared in OptiMEM I reduced serum medium at 10:1, 15:1 and 20:1 ratios (w/w). Lipofectamine 2000 was used as control. The complexes were added to the cells and incubated for 4 h at 5% CO2, 37° C. before being washed with PBS. The transfection medium was removed and replaced with serum supplemented cell culture medium. At 72 h post-transfection, the cells were washed and lysed with cell lysis buffer. Western blotting assay was performed to analyze the level of GAPDH protein. The GAPDH expression was analyzed by densitometry of Western Blots using Image J software. The remaining GAPDH expression was the density of the GAPDH band of positive control (normalized with beta-actin of the corresponding sample) divided by the GAPDH band of negative control (normalized with the beta actin band of the corresponding sample).
as §1

[3] = Solubility of peptides in water; assay type: physicochemical

charge ratio of peptide to siRNA [1]: 4.2 to 1
binding affinity between peptide and siRNA (siRNA): weakest
solubility [3]: > 2000 µg/mL
SMILES: CC(C)C[C@H](NC(=O)[C@H](CC(C)C)NC(=O)[C@H](CC(C)C)NC(=O)[C@H](CC(C)C)NC(=O)[C@H](CCCCN)NC(=O)[C@H](CC(C)C)NC(=O)[C@H](CC(C)C)NC(=O)[C@H](CC(C)C)NC(=O)[C@H](CC(C)C)NC(=O)[C@H](CCCCN)NC(=O)[C@H](CC(C)C)NC(=O)[C@H](CC(C)C)NC(=O)[C@H](CC(C)C)NC(=O)[C@H](CC(C)C)NC(=O)[C@H](CCCCN)NC(=O)[C@H](CC(C)C)NC(=O)[C@H](CC(C)C)NC(=O)[C@H](CC(C)C)NC(=O)[C@H](CC(C)C)NC(=O)[C@H](CCCCN)NC(=O)CCOCCOCCOCCOCCOCCOCCOCCOCCOCCOCCOCCOCCOCCOCCOCCOCCOCCOCCOCCOCCOCCOCCOCCOCCN)C(=O)N[C@@H](CCCCN)C(N)=O [PEG24KL4] (H-[PEG24]KLLLLKLLLLKLLLLKLLLLK-NH2; N-terminus assumed)
Comparison within the same peptide prepared at different peptide to siRNA ratios (BEAS-2B cells): 5:1 vs 20:1 *
Comparison within the same peptide prepared at different peptide to siRNA ratios (Calu-3 cells): n.s.
secondary structure at different temperatures (far-UV CD) [2]: adopted an alpha-helical structure at all tested temperatures
siRNA transfection efficiency among the four peptides at different amounts of siRNA (A549 cells): lowest transfection efficiency
